The values that follow come from paper PMC8151276, “An Integrated Approach toward NanoBRET Tracers for Analysis of GPCR Ligand Engagement” (Molecules, 2021).

Format in all cases: binding
For one experiment, the target named is T1, GRPR (Homo sapiens, UniProt P30550).
T1 construct: purchased Promega (in-house HiBiT-GPCR construct library, NanoBRET)
The experiment in a line: NanoBRET screen HiBiT-GRPR in HEK293. The procedure: (§1) Each tracer candidate was screened across the entire library of HiBiT-GPCR constructs using NanoBRET as the detection modality. As depicted in Figure 4A, the specificity of interactions was evaluated through decrease in BRET due to competitive displacement of a bound tracer by excess parental compound. Each tracer was analyzed for binding to each HiBiT-GPCR fusion in the absence and in the presence of competing parental compound. Briefly, HEK293 cells were transfected with HiBiT-GPCR constructs diluted into promoterless DNA to reduce expression and maximize translocation to the cell surface. Each tracer candidate was then screened at concentrations of 1 μM and 0.1 μM across cells expressing these fusions. Cells were treated for 1.5 h with tracer either alone or in the presence of 20 μM competing parental compound (i.e., control). BRET was measured upon addition of purified LgBiT and subsequent complementation with HiBiT genetically fused to a GPCR. The specificity of interactions was assessed through a decrease in BRET signal due to competitive displacement of the bound tracer. To further gauge the robustness of these interactions, the fold response over the control (i.e., BRETtracer/BRETcontrol) was calculated. We chose a 1.5-fold response, which translates to ≥7-fold signal over noise as the minimal threshold required to score an interaction as positive. […]. Below we highlight the screening results obtained for our exemplary fluorescent tracers based on Clozapine, Amitriptyline and AZD1283.
(§2) HiBiT-GPCR DNA constructs were diluted in 10 mM Tris pH 8 to a final concentration of 0.01 μg/μL, arrayed in 96-well plates and stored at −20 °C. For transfection, HEK293 cells were suspended in Opti-MEM (without phenol red) supplemented with 2% fetal bovine serum (Seradigm) and 100 units/mL penicillin–streptomycin (Gibco) at a final concentration of 220,000 cells/mL and dispensed into white 96-well plates at 90 μL/well. Subsequent transfections and screens were carried using an Agilent Bravo Automated Liquid Handling Platform. First, the 96-well HiBiT DNA arrays were diluted 25-fold in Opti-MEM (without serum or phenol red) to a final concentration of 0.0004 μg/μL and 20 μL of the diluted DNAs were transferred into new 96-well plates. Next, promoterless carrier DNA (1 μg/μL) was diluted 25-fold (0.04 μg/μL) and then dispensed into the diluted arrays at 20 μL/well. Following brief mixing, Viafect transfection reagent (Promega) diluted 16-fold into Opti-MEM was dispensed into the plates at 40 μL/well. After mixing by pipetting, plates were incubated for 10 min on the pipetting station deck. The DNA-transfection reagent complexes were then added to plates containing cells. To facilitate the screen, 10 μL of DNA-transfection reagent complexes were added in duplicates to the top 4 and bottom 4 rows, resulting in two identical 48-well arrays per plate. Plates with transfected cells were incubated for 18–20 h at 37 °C/5% CO2. A screen of each tracer across the entire library using two different concentrations requires duplicate plates of transfected cells. Depending on the number of tracers being screened, transfections can be scaled up using the same ratios. The next day, for each tracer, four 20× screening solutions in tracer dilution buffer (Promega) were prepared: two duplicates at final concentration of 20 μM and two duplicates at a final concentration of 2 μM. A competing unmodified compound was added to one of each duplicate at a final concentration of 400 μM. The four resulting solutions were diluted 4-fold in Opti-MEM without serum or phenol red to generate 5× solutions (5 µM and 0.5 µM tracer +/− 100 μM competing compound). To screen the library, a BioTek MultiFlo FX liquid dispenser was used to dispense 22.5 µL of tracer solution to the top 4 rows and 22.5 µL tracer + competing compound solution to the 4 bottom rows. Plates were briefly mixed on an orbital shaker and incubated for 1.5 h at room temperature. […]
(In general: BRET reads energy transfer from a luciferase to a nearby fluorophore.)

A further experiment deals with T2, PTGER3 (Homo sapiens, UniProt P43115).
T2 construct: purchased Promega (in-house HiBiT-GPCR construct library, NanoBRET)
T2 sequence (P43115 1-390): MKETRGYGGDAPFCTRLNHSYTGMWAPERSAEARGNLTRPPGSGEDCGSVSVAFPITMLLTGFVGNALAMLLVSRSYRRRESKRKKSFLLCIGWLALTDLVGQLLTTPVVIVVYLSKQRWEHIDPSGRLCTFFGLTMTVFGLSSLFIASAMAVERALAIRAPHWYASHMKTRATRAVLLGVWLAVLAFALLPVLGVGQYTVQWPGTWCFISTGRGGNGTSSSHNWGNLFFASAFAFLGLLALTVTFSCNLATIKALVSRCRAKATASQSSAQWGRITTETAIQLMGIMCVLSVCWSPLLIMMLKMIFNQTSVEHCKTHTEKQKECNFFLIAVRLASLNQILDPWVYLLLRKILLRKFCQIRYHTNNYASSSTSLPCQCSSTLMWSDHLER
The experiment in a line: NanoBRET screen HiBiT-PTGER3 in HEK293. The procedure: as §1, §2

The next experiment addresses T3, P2RY2 (Homo sapiens, UniProt P41231).
T3 construct: purchased Promega (in-house HiBiT-GPCR construct library, NanoBRET)
The experiment in a line: NanoBRET screen HiBiT-P2RY2 in HEK293. The procedure:
as §1, §2

The mark [1] stands for this setting: tracer at 0.1μM, listed as amitriptyline-b-2-NB590.
Setting [2] is: tracer at 1μM, listed as amitriptyline-b-2-NB590.

T1 sequence (P30550 whole entry): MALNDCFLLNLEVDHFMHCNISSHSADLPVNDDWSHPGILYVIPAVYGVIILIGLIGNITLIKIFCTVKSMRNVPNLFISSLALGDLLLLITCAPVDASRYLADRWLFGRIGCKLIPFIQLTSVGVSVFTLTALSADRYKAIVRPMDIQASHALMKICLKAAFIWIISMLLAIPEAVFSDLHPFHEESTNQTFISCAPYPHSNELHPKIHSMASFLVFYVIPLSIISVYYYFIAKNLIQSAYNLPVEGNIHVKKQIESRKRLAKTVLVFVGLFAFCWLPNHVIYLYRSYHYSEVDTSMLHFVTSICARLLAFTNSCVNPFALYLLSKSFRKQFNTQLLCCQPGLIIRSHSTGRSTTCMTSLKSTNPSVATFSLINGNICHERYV
T3 sequence (P41231 whole entry): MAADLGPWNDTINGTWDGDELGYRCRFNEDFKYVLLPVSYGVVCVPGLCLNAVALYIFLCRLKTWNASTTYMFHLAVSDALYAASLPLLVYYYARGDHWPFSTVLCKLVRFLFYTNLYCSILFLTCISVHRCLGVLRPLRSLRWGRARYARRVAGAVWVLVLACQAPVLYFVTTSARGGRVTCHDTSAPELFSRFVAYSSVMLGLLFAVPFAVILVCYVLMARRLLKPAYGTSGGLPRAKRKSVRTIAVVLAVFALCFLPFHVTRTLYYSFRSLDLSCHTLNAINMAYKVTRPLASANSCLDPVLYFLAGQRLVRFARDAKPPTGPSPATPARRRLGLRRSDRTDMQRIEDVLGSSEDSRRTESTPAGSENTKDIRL

Regarding `CC(C)N(CC[C@H](c1ccccc1)c1cc(CCNC(=O)c2ccc(CNC(=O)CCc3ccc4n3[B-](F)(F)[N+]3=C(c5ccc[nH]5)C=CC3=C4)cc2)ccc1O)C(C)C` [Tolterodine-BZ-NB590], the “NanoBRET Fold Response” value was found to be 0.81 on GRPR (GRPR, tracer 0.1μM); 0.99 on GRPR (GRPR, tracer 1μM); 0.99 on PTGER3 (PTGER3, tracer 0.1μM); 1.07 at PTGER3 (PTGER3, tracer 1μM); 1.02 at P2RY2 (P2RY2, tracer 0.1μM); 1.04 at P2RY2 (P2RY2, tracer 1μM).

As for `O=C(CCc1ccc2n1[B-](F)(F)[N+]1=C(c3ccc[nH]3)C=CC1=C2)NCCOCCOCCNC(=O)OCCOCCN1CCN(C2=Nc3ccccc3Sc3ccccc32)CC1` [Quetiapine-a-2-NB590], the “NanoBRET Fold Response” value on GRPR (GRPR, tracer 0.1μM) came out at 0.66; on GRPR (GRPR, tracer 1μM) it was 0.84; at PTGER3 (PTGER3, tracer 0.1μM), 0.97; on PTGER3 (PTGER3, tracer 1μM) it was 1.04; at P2RY2 (P2RY2, tracer 0.1μM), 1.07; at P2RY2 (P2RY2, tracer 1μM), 0.95.

For the compound `Cc1cc2c(s1)Nc1ccccc1N=C2N1CCN(CCCNC(=O)CCOCCOCCOCCOCCNC(=O)CCc2ccc3n2[B-](F)(F)[N+]2=C(c4ccc[nH]4)C=CC2=C3)CC1` [Olanzapine-a-2-NB590], the “NanoBRET Fold Response” value turned out to be 0.95 at GRPR (GRPR, tracer 0.1μM); 0.93 at GRPR (GRPR, tracer 1μM); 1.00 on PTGER3 (PTGER3, tracer 0.1μM); 0.95 at PTGER3 (PTGER3, tracer 1μM); 0.95 at P2RY2 (P2RY2, tracer 0.1μM); 1.13 on P2RY2 (P2RY2, tracer 1μM).

As to `CN(C)CCC=C1c2ccccc2CCc2ccc(C(=O)NCCNC(=O)CCOCCOCCOCCOCCNC(=O)CCc3ccc4n3[B-](F)(F)[N+]3=C(c5ccc[nH]5)C=CC3=C4)cc21` [Amitriptyline-b-2-NB590], the “NanoBRET Fold Response” value at GRPR (setting [1]) is on record as 1.05; at GRPR (setting [2]) it was 1.03; at PTGER3 (tracer at 0.1μM), 0.96; at PTGER3 (tracer at 1μM), 1.01; at P2RY2 (setting [1]), 1.04; on P2RY2 (setting [2]), 0.92.

As to `O=C(CCOCCOCCOCCOCCNC(=O)CCc1ccc2n1[B-](F)(F)[N+]1=C(c3ccc[nH]3)C=CC1=C2)NCCCN1CCN(C2=Nc3cc(Cl)ccc3Nc3ccccc32)CC1` [Clozapine-a-2-NB590], the “NanoBRET Fold Response” value on GRPR (GRPR, 0.1μM tracer) is recorded as 1.11; at GRPR (GRPR, 1μM tracer), 1.37; at PTGER3 (PTGER3, 0.1μM tracer), 1.03; at PTGER3 (PTGER3, 1μM tracer), 1.12; at P2RY2 (P2RY2, 0.1μM tracer) it was 1.12; at P2RY2 (P2RY2, 1μM tracer) it was 0.97.

Regarding `CN1CCN(C2=Nc3cc(Cl)ccc3Nc3ccc(CNC(=O)CCOCCOCCOCCOCCNC(=O)CCc4ccc5n4[B-](F)(F)[N+]4=C(c6ccc[nH]6)C=CC4=C5)cc32)CC1` [Clozapine-b-2-NB590], the “NanoBRET Fold Response” value at GRPR (GRPR, 0.1μM tracer) was 1.01; on GRPR (GRPR, 1μM tracer) it was 1.00; on PTGER3 (PTGER3, 0.1μM tracer), 0.97; at PTGER3 (PTGER3, 1μM tracer) it was 0.97; at P2RY2 (P2RY2, 0.1μM tracer), 0.96; on P2RY2 (P2RY2, 1μM tracer), 1.00.

Turning to `Cc1nc2n(c(=O)c1CCN1CCC(c3noc4cc(F)ccc34)CC1)CCCC2OC(=O)NCCOCCOCCOCCOCCNC(=O)CCc1ccc2n1[B-](F)(F)[N+]1=C(c3ccc[nH]3)C=CC1=C2` (stereo not drawn) [Risperidone-2-NB590], the “NanoBRET Fold Response” value on GRPR (GRPR, tracer 0.1μM) stood at 0.96; on GRPR (GRPR, tracer 1μM), 0.91; at PTGER3 (PTGER3, tracer 0.1μM), 0.94; at PTGER3 (PTGER3, tracer 1μM) it was 1.12; on P2RY2 (P2RY2, tracer 0.1μM), 1.08; at P2RY2 (P2RY2, tracer 1μM), 0.86.
